# Data published in US7196110B2, “N-substituted tricyclic 3-aminopyrazoles as inhibitors for the treatment of cell proliferative disorders” (Janssen Phamaceutica N.V., priority 2002, dated 2007).
# Read-outs that look alike come from different tables or passages of the source.
# Tests used:
# [1] = molecular target: T1, PDGF-receptor beta enzyme comprising the tyrosine kinase domain (Homo sapiens, UniProt P09619); test: Inhibition of PDGF-receptor kinase activity (cell-free, PLC1 peptide, 33P Flashplate); assay type: biochemical; conditions: for inhibition at 10 µM: compound at 10 uM, read-out: Percent Inhibition @ 10 uM
# T1 construct: from amino acid 545 to 1106 of GenBank Access NO: AAA36427
# Procedure, shortened: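 Recombinant kinase domain (aa 545–1106) phosphorylated a biotinylated PLC1 peptide with 5 μM ATP plus 33P-γ-ATP, in Tris pH 8, MgCl2, Na3VO4 and 1 mM DTT, for 60 min at 30 °C. Retained 33P was counted after washing. IC50 is the concentration halving activity versus no-inhibitor reactions.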
# [2] = molecular target: c-Abl kinase (Abelson murine leukemia virus, UniProt P00521); test: Inhibition of c-Abl kinase activity (cell-free, Abl peptide substrate, 33P Flashplate); assay type: biochemical; conditions: IC50 for the c-Abl kinase activity
# [3] = system: PDGF-BB-stimulated angiogenesis; test: Anti-angiogenesis matrigel mouse model (MM assay) supplemented with PDGF-BB, plug hemoglobin content; assay type: in vivo, mice (C57BL/6J); conditions: mice
# Description: Angiogenesis inhibitory activity of a compound of this invention can be measured in vivo using the matrigel mouse model (MM Assay) of angiogenesis (Passaniti et al., Laboratory Investigation, 67: 519–528, 1992). The matrigel mouse assay is a well-established method to quantify angiogenesis (see e g. Capogrossi et al., Methods in Molecular Medicine, Vascular Disease: Molecular Biology and Gene Therapy Protocols, Edited by: A. H. Baker, Humana Press Inc., Totowa, N.J., 1999). The model has been characterized extensively for its relevance as a mimic of the process of angiogenesis and has been used extensively to evaluate in vivo both potential angiogenic and anti-angiogenic activity of numerous compounds/agents. […] All procedures involving animals were conducted in an animal facility fully accredited by the American Association for Assessment and Accreditation of Laboratory Animal Care (AAALAC) and in accordance with The Guide for the Care and Use of Laboratory Animals (NIH). […]
# Normal male mice (C57BL/6J) were injected subcutaneously (ventrally below rib cage at abdominal midline) with 1.0 mL of chilled matrigel supplemented with a single purified pro-angiogenic growth factor (100–500 ng/mL of either rhPDGF-BB (supra), recombinant human basic fibroblast growth factor, rhFGF-basic (R&D System Cat. No 233-FB) or recombinant human vascular endothelial growth factor, rhVEGF (PanVera Cat. No R2951) and heparin (35 U/mL). Compounds are formulated as 0.1% suspensions (1 mg/mL final concentration) in 0.5% methylcellulose. Vehicle or test compounds (8–10 mice per treatment group) were administered orally by gavage beginning two hours after matrigel injections. […] Supernatants were removed and the hemoglobin concentration in the plug extract was measured spectrophotometrically using the Drabkin's assay method (Drabkin's reagent kit 525-A; SIGMA) and read on a Beckman DU 7400 Spectrophotometer. […] Group differences were analyzed statistically using the Mann-Whitney Test, with a p-value of 0.05 or less considered statistically significant. […]
# [4] = system: T47D (breast); test: Anti-cell proliferation in tumor cells (14C-thymidine incorporation), T47D; assay type: cell-based; conditions: Homo sapiens, read-out: IC50 on cell proliferation, T47D
# Description: (§1) The effect of compounds of the invention on cell proliferation in various tumor cells was tested based on incorporation of ^14C-thymidine into DNA of cells.
# (§2) Similar to those described above in 3a, except that different cells, cell growth medium, and growth supplements were used. Human tumor cell lines derived from various human tissue origins (LoVo from colon, H460 from lung, T47D from breast, PC3 from prostate, A375 from melanoma, AsPC1 from pancreas) were obtained from the American Type Culture Collection (ATCC) and cultured under specified conditions required for each cell type, as provided by ATCC. Complete medium was obtained from Cellgro: Iscove's medium with 10% Fetal Bovine Serium (FBS) (Mediatech, Inc., Herndon, Va. 20171, Cat. No. 10-016-CV).
# (§3) Tumor cells were seeded at approx. 3000–8000 cells per well in a volume of 100 μl of complete medium. Cells were grown for 24 hours in complete medium, and 1 μl of test compound was serially diluted in 100% DMSO and added to each well. For maximum growth control wells, only 1 μl of 100% DMSO was added. After 24 hours incubation, 20 μl of ^14C-thymidine master mix was added to each well and the ^14C-thymidine master mix was pepared according to the following regimen:
# (§4) Cells were incubated for an additional 24 hours at 37° C. in medium containing test compound and ^14C-thymidine. Then, the reaction mixture was discarded and the plate was washed 2 times each with 200 μl PBS. Subsequently, each well on the plate was filled with 200 μl of PBS. The top of the plate was sealed with transparent plate sealer and white plate backing sealers were applied to the bottom of plates. The retained ^14C inside each well was measured using a Packard TopCount.
# (§5) In order to test the potency of inhibition of the present compound, IC50 of an individual compound on the inhibition of tumor cell line proliferation was measured using the above procedure. As used herein, said IC50 refers to the concentration of the test compound at which the amount of tumor cell proliferation is reduced by one-half as compared to the maximum growth control wells without the compound.
# [5] = system: LoVo (colon); test: Anti-cell proliferation in tumor cells (14C-thymidine incorporation), LoVo; assay type: cell-based; conditions: Homo sapiens, read-out: IC50 on cell proliferation, LoVo
# Description: as §1, §2, §3, §4, §5
# [6] = system: AsPC1 (pancreas); test: Anti-cell proliferation in tumor cells (14C-thymidine incorporation), AsPC1; assay type: cell-based; conditions: Homo sapiens, ASPC1; read-out: IC50 on cell proliferation, AsPC1
# Description: as §1, §2, §3, §4, §5
# [7] = system: H460 (lung); test: Anti-cell proliferation in tumor cells (14C-thymidine incorporation), H460; assay type: cell-based; conditions: Homo sapiens, NCI-H460; read-out: IC50 on cell proliferation, H460
# Description: as §1, §2, §3, §4, §5
# [8] = system: PC3 (prostate); test: Anti-cell proliferation in tumor cells (14C-thymidine incorporation), PC3; assay type: cell-based; conditions: Homo sapiens, PC-3; read-out: IC50 on cell proliferation, PC3
# Description: as §1, §2, §3, §4, §5
# [9] = system: A375 (melanoma); test: Anti-cell proliferation in tumor cells (14C-thymidine incorporation), A375; assay type: cell-based; conditions: Homo sapiens, A-375; read-out: IC50 on cell proliferation, A375
# Description: as §1, §2, §3, §4, §5
# [10] = Rat pharmacokinetics study of pro-drugs, conversion to parent monitored by HPLC/MS/MS; assay type: in vivo; conditions: po, rat plasma, 10 mg/kg orally, read-out: Fast PK (0.5 h) conc. Prodrug
# Description: Furthermore, pro-drugs have been administered orally to rats (10 mg/kg) in pharmacokinetics studies, and the conversion of pro-drugs to the parent compound was montitored by HPLC/MS/MS analyses. Parent compound or the glucuronide conjugates of the parent compound was detected in the rat plasma from the pharmacokinetics studies (Table G).
# [11] = PDGF-R kinase activity, read-out: IC50
# T1 sequence (P09619 545-1106): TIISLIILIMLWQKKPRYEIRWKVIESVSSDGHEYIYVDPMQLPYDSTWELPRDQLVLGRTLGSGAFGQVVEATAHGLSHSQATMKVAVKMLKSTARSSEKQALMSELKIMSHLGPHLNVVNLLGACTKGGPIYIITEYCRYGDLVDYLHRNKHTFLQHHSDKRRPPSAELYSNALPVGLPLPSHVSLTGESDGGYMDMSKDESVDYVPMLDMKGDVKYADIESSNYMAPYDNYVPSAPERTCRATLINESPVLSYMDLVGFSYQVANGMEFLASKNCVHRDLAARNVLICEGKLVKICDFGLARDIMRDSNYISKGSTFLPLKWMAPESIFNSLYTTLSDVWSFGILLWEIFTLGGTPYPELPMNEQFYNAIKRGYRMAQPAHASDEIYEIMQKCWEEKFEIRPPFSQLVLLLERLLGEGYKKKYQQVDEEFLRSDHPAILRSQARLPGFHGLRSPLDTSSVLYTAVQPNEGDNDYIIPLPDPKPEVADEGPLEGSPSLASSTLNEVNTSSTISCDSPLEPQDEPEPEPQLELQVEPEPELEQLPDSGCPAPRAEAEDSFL
# Chain of c-Abl kinase (P00521 115-385): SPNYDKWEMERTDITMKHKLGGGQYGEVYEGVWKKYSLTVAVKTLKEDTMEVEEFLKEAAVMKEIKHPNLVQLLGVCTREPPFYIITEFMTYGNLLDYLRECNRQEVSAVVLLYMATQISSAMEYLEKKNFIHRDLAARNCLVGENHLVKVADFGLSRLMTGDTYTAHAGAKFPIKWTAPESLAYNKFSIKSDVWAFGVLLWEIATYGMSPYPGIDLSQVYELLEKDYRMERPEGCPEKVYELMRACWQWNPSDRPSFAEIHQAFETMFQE
concentration at 0.5 h [10],IC50 ([1]; read-out: IC50 (μM) on PDGF-R kinase activity),SMILES,inhibition at 10 µM ([1]; PDGF-R kinase activity),"IC50 [1, 11]",IC50 [2],"% Inhibition @ 30 mg/kg po (angiogenesis, MM assay supplemented with PDGF-BB) [3]",IC50 [4],IC50 [5],IC50 [6],IC50 [7],IC50 [8],IC50 [9]
,,"COc1cc2c(cc1OC)-c1n[nH]c(Nc3cccc(C(F)(F)F)c3)c1C2 [Compound 26, (6,7-Dimethoxy-2,4-dihydro-indeno[1,2-c]pyrazol-3-yl)-(3-trifluoromethyl-phenyl)-amine]",92%,0.037 µM,134 nM,42%,,,,,,
,,"CCC1c2cc(OC)c(OC)cc2-c2n[nH]c(Nc3cccc(Br)c3)c21 (centres unmarked) [Compound 420, (3-Bromo-phenyl)-(4-ethyl-6,7-dimethoxy-2,4-dihydro-indeno[1,2-c]pyrazol-3-yl)-amine]",100%,0.0524 µM,335 nM,,822 nM,3800 nM,4300 nM,4100 nM,276 nM,214 nM
7800 nM,4.02 µM,"CNC(=O)n1nc(Nc2cccc(F)c2)c2c1-c1cc(OC)c(OC)cc1C2 [Compound 578, 3-(3-Fluoro-phenylamino)-6,7-dimethoxy-4H-indeno[1,2-c]pyrazole-1-carboxylic acid methylamide]",80%,,,,,,,,,
,,"CCOc1cccc(Nc2[nH]nc3c2Cc2cc(OCC)c(OCCCO)cc2-3)c1 [Compound 388, 3-[6-Ethoxy-3-(3-ethoxy-phenylamino)-2,4-dihydro-indeno[1,2-c]pyrazol-7-yloxy]-propan-1-ol]",96%,0.0367 µM,46 nM,,3 nM,18 nM,155 nM,6 nM,4 nM,2 nM
60 nM,,"COc1cc2c(cc1OC)-c1c(c(Nc3cccc(F)c3)nn1C(=O)Oc1ccccc1)C2 [Compound 433, 3-(3-Fluoro-phenylamino)-6,7-dimethoxy-4H-indeno[1,2-c]pyrazole-1-carboxylic acid phenyl ester]",71%,0.585 µM,,,,,,,,
0 nM,,"COc1cc2c(cc1OC)-c1c(c(Nc3cccc(F)c3)nn1C(=O)OCCOCCOCCO)C2 [Compound 471, 3-(3-Fluoro-phenyl-amino)-6,7-dimethoxy-4H-indeno[1,2-c]pyrazole-1-carboxylic acid 2-[2-(2-hydroxy-ethoxy)-ethoxy]-ethyl ester]",90.5%,0.135 µM,,,,,,,,

SMILES,concentration at 0.5 h [10],IC50 ([1]; read-out: IC50 (μM) on PDGF-R kinase activity),inhibition at 10 µM ([1]; PDGF-R kinase activity),"IC50 [1, 11]",IC50 [2],"% Inhibition @ 30 mg/kg po (angiogenesis, MM assay supplemented with PDGF-BB) [3]",IC50 [4],IC50 [5],IC50 [6],IC50 [7],IC50 [8],IC50 [9]
"COCC(=O)n1nc(Nc2cccc(F)c2)c2c1-c1cc(OC)c(OC)cc1C2 [Compound 465, 1-[3-(3-Fluoro-phenylamino)-6,7-dimethoxy-4H-indeno[1,2-c]pyrazol-1-yl]-2-methoxy-ethanone]",223 nM,,96%,0.00673 µM,51 nM,,,,,,,
